The results in this text go back to ChEMBL document CHEMBL1150205, “Justiciresinol, a new furanoid lignan from Justicia glauca” (1991).

Assay type in all cases: functional
What all share (conditions): read-out: ED50 (the source's name)

One experiment relates to HT-29. As to the kind of experiment: Cytotoxicity against human HT-29 cells.
The subject of another experiment is A549. As to the kind of experiment: Cytotoxicity against human A549 cells.
Another experiment deals with MCF7. As to the kind of experiment: Cytotoxicity against human MCF7 cells.

SMILES strings stand for the structures. ≈ marks a conversion by molar mass, not a printed value.

Consider `COc1cc([C@H]2OC[C@H](Cc3cc(OC)c(O)c(OC)c3)[C@@H]2CO)ccc1O` [JUSTICIRESINOL], for which the EC50 in the experiment with HT-29 stood at 18.3 µg/mL (≈ 46.9 µM); with A549 it was 31.3 µg/mL (≈ 80.2 µM); in the experiment with MCF7, 22.3 µg/mL (≈ 57.1 µM).
